This note sets out measurements from patent US20200071310A1, “N-ARYL PYRAZOLES AS NRF2 REGULATORS” (GLAXOSMITHKLINE INTELLECTUAL PROPERTY DEVELOPMENT LIMITED, priority 2016, published 2020).

This assay has as its target T1, full length Keap1 protein / full length NRF2 protein (Homo sapiens, UniProt Q14145).
T1 construct: full length NRF2 protein and full length Keap1 protein (Keap1 exists a dimer) are used; His
Briefly: NRF2-Keap1 TR-FRET Low Protein Assay. Type of assay: binding. The text has this:
In the NRF2-Keap1 TR-FRET (time-resolved fluorescence resonance energy transfer) low protein assay, full length NRF2 protein and full length Keap1 protein (Keap1 exists a dimer) are used. The assay detects a compound's ability to displace the binding of Keap1 FlagHis with biotinylated Avi-NRF2 protein. Biotin-NRF2 binds to streptavidin-europium (a component of the detection mix) and Keap1 FlagHis is recognized by anti-Flag APC (allophycocyanin) antibody (also a component of the detection mix). If binding occurs between the two proteins, there will be an energy transfer from the Eu+3 (donor) at 615 nm to the APC (acceptor) at 665 nm. A potential NRF2 inhibitor will cause a reduction in the TR-FRET signal by interfering with the binding of Keap1 to NRF2.
Ten nanoliters of 100× compound dose response curves (serial 3-fold dilutions) in DMSO were stamped using an Echo liquid handling system (Labcyte) into 384-well, low volume, black assay plates (Greiner, #784076), with DMSO in columns 6 and 18. An additional 90 nl DMSO was added to each well, to bring the total volume to 100 nl per well. The top concentration of compound was located in columns 1 and 13, with the serial dilutions going across the row. All reagents were diluted in assay buffer (50 mM Tris, pH 8.0, 5 mM MgCl2, 100 mM NaCl, 0.005% BSA, 1 mM DTT, and 2 mM CHAPS. The BSA, DTT, and CHAPS were added to the assay buffer on the day of assay. Using a Multidrop Combi (Thermo Electron Corporation) equipped with a metal tip dispenser, 5 ul of 1.25 nM Keap1 FlagHis protein was added to all wells of the compound plate, with the exception of the wells in column 18. Wells in column 18 received 5 ul of assay buffer instead. Plates were centrifuged at 500 rpm for 1 minute, covered with a plate lid, and incubated at 37° C. for 2.25 hours. Plates were then removed from the incubator and allowed to cool to RT for 15 minutes. Five microliters of 2.5 nM biotin-NRF2 protein was then added to all wells of the plates and the plates were spun at 500 rpm for 1 minute, followed by incubating at 4° C. for 1.25 hours. The plates were then allowed to warm to RT for 15 minutes, followed by the addition of 10 ul of detection mix (1 nM Streptavidin Eu+W1024 and 5 ug/ml mouse anti-DYKDDDDK IgG conjugated to SureLight APC antibody; both from Columbia Biosciences) to all wells. Plates were spun at 500 rpm for 1 minute, incubated for 1 hour at RT, and read on an Envision plate reader using a 320 nm excitation filter and 615 nm and 665 nm emission filters. Compound response (% inhibition) and potency (pIC50) were calculated based on the ratio of the two emissions (665 nm/615 nm) and then the transformed data was normalized against controls in the assay (control 1=1% DMSO in the presence of NRF2 and Keap1 protein and control 2=1% DMSO in the presence of only the NRF2 protein). Data analysis was handled using the software package Abase XE (Surrey, United Kingdom). The % inhibition values were calculated from the ratio (transformed) data by the equation:
100−(100*(compound response−average control 2)/(average control 1−average control2)).
For calculation of pIC50s, Abase XE used a four parameter equation.
IC50s<10 nM (+++++), IC50s 10-100 nM (++++), IC50s 100 nM-1 uM (+++), IC50s 1-10 uM (++). and IC50s 10 uM-100 uM (+), IC50s>100 uM (−), or were not determined (ND).
On the technique in general: Time-resolved FRET reads energy transfer from a long-lived donor to a nearby acceptor.

T1 sequence (Q14145 whole entry): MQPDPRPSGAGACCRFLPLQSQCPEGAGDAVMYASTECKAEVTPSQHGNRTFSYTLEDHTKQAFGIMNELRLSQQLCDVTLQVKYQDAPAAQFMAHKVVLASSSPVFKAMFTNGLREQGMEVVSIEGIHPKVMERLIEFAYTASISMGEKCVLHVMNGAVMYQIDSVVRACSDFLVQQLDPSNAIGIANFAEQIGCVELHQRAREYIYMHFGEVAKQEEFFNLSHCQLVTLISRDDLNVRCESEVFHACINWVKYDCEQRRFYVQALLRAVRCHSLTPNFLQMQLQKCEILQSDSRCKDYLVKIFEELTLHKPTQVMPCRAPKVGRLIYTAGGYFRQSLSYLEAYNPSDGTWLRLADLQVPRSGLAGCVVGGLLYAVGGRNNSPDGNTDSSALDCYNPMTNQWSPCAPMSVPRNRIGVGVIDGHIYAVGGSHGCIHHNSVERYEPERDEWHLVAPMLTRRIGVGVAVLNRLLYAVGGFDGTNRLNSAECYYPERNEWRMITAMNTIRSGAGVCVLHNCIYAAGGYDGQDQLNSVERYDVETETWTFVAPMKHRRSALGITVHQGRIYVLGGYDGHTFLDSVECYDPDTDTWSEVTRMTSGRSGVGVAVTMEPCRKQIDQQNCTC

Usually EC50 stands for the concentration that produces a half-maximal response. Read a low EC50 as a more potent agent. `COc1cc([N+](=O)[O-])ccc1S(=O)(=O)N(C)Cc1cccc(-n2ncc(C(=O)O)c2[C@@H]2C[C@H]2c2cn(C)nn2)c1` (racemic) [Example 44, 1-(3-((2-methoxy-N-methyl-4-nitrophenylsulfonamido)methyl)phenyl)-5-((trans)-2-(1-methyl-1H-1,2,3-triazol-4-yl)cyclopropyl)-1H-pyrazole-4-carboxylic acid] registered a concentration for a half-maximal effect (EC50) of 1000 to 10000 nM.

For `CN(Cc1cccc(-n2ncc(C(=O)O)c2[C@@H]2C[C@H]2c2cn(C)nn2)c1)S(=O)(=O)c1cccc2cccnc12` (racemic) [Example 51, 5-((trans)-2-(1-methyl-1H-1,2,3-triazol-4-yl)cyclopropyl)-1-(3-((N-methylquinoline-8-sulfonamido)methyl)phenyl)-1H-pyrazole-4-carboxylic acid], the EC50 lay in the range of 1000 to 10000 nM.

In turn, `CN(Cc1cccc(-n2ncc(C(=O)O)c2[C@@H]2C[C@H]2c2cn(C)nn2)c1)S(=O)(=O)c1ccccc1Oc1ccccc1` (relative stereo) [Example 38, 5-((trans)-2-(1-methyl-1H-1,2,3-triazol-4-yl)cyclo-propyl)-1-(3-((N-methyl-2-phenoxyphenyl-sulfonamido)-methyl)phenyl)-1H-pyrazole-4-carboxylic acid] registered an EC50 of 100 to 1000 nM.

Consider `COc1ccc(Cl)cc1S(=O)(=O)N(C)Cc1cccc(-n2ncc(C(=O)O)c2[C@@H]2C[C@H]2c2cn(C)nn2)c1` (racemic) [Example 40, 1-(3-((5-chloro-2-methoxy-N-methylphenyl-sulfonamido)-methyl)phenyl)-5-((trans)-2-(1-methyl-1H-1,2,3-triazol-4-yl)cyclo-propyl)-1H-pyrazole-4-carboxylic acid], for which the EC50 lay in the range of 1000 to 10000 nM.

Compound `C[C@H]1Cc2ccc(C(F)(F)F)cc2S(=O)(=O)N([C@H]2CCc3c2cccc3-n2ncc(C(=O)O)c2[C@@H]2C[C@H]2c2cn(C)nn2)C1` [Example 26a, 1-((S)-1-((S)-4-Methyl-1,1-dioxido-8-(trifluoromethyl)-4,5-dihydrobenzo[f][1,2]thiazepin-2(3H)-yl)-2,3-dihydro-1H-inden-4-yl)-5-((1R,2R)-2-(1-methyl-1H-1,2,3-triazol-4-yl)cyclopropyl)-1H-pyrazole-4-carboxylic acid] yielded an EC50 of 100 to 1000 nM.

The compound `CN(Cc1cccc(-n2ncc(C(=O)O)c2[C@@H]2C[C@H]2c2cn(C)nn2)c1)S(=O)(=O)c1ccccc1` (racemic) [Example 48, 5-((trans)-2-(1-methyl-1H-1,2,3-triazol-4-yl)cyclopropyl)-1-(3-((N-methylphenylsulfonamido)methyl)phenyl)-1H-pyrazole-4-carboxylic acid] yielded an EC50 of 1000 to 10000 nM.

Regarding `CC[C@@H]1CN(Cc2cccc(-n3ncc(C(=O)O)c3[C@@H]3C[C@H]3c3cn(C)nn3)c2)S(=O)(=O)c2ccccc2O1` [Example 3], the EC50 was 10 to 100 nM.

As for `CC[C@H]1Cc2ccc(C(F)(F)F)cc2S(=O)(=O)N(Cc2cccc(-n3ncc(C(=O)O)c3[C@@H]3C[C@H]3c3cn(C)nn3)c2)C1` [Example 20, 1-(3-(((S)-4-ethyl-1,1-dioxido-8-(trifluoromethyl)-4,5-dihydrobenzo[f][1,2]thiazepin-2(3H)-yl)methyl)phenyl)-5-((1R,2R)-2-(1-methyl-1H-1,2,3-triazol-4-yl)cyclopropyl)-1H-pyrazole-4-carboxylic acid], the EC50 is less than 10 nM.

In the case of `C[C@@H]1Cc2cc(C(F)(F)F)ccc2S(=O)(=O)N(Cc2cccc(-n3ncc(C(=O)O)c3[C@@H]3C[C@H]3c3cn(C)nn3)c2)C1` (racemic) [Example 18, 1-(3-((4-methyl-1,1-dioxido-7-(trifluoromethyl)-4,5-dihydro-benzo[f][1,2]thiazepin-2(3H)-yl)methyl)phenyl)-5-((trans)-2-(1-methyl-1H-1,2,3-triazol-4-yl)cyclopropyl)-1H-pyrazole-4-carboxylic acid], the EC50 is 10 to 100 nM.

As for `Cn1cc([C@@H]2C[C@H]2c2c(C(=O)O)cnn2-c2cccc(CN3Cc4cc(Br)ccc4OC(C)(C)C3)c2)nn1` (racemic) [Example 13], the EC50 was in the range of 10 to 100 nM.

The compound `Cc1ccccc1S(=O)(=O)N(C)Cc1cccc(-n2ncc(C(=O)O)c2[C@@H]2C[C@H]2c2cn(C)nn2)c1` (racemic) [Example 42, 1-(3-((N,2-dimethylphenylsulfonamido)methyl)phenyl)-5-((trans)-2-(1-methyl-1H-1,2,3-triazol-4-yl)cyclopropyl)-1H-pyrazole-4-carboxylic acid] came in with an EC50 of 1000 to 10000 nM.

In turn, `C[C@H]1Cc2ccccc2S(=O)(=O)N(Cc2cccc(-n3ncc(C(=O)O)c3[C@@H]3C[C@H]3c3cn(C)nn3)c2)C1` [Example 15, 1-(3-(((S)-4-methyl-1,1-dioxido-4,5-dihydrobenzo[f][1,2]thiazepin-2(3H)-yl)methyl)phenyl)-5-((trans)-2-(1-methyl-1H-1,2,3-triazol-4-yl)cyclopropyl)-1H-pyrazole-4-carboxylic acid] returned an EC50 of 100 to 1000 nM.

In turn, `CC[C@@H]1CN(Cc2cc(-n3ncc(C(=O)O)c3[C@@H]3C[C@H]3c3cn(C)nn3)ccc2C)Cc2ccccc2O1` [Example 28] showed an EC50 of 1000 to 10000 nM.

`C[C@H]1Cc2ccc(Br)cc2S(=O)(=O)N(Cc2cccc(-n3ncc(C(=O)O)c3[C@@H]3C[C@H]3c3cn(C)nn3)c2)C1` (racemic) [Example 17, 1-(3-((8-bromo-4-methyl-1,1-dioxido-4,5-dihydrobenzo[f][1,2]thiazepin-2(3H)-yl)methyl)phenyl)-5-((trans)-2-(1-methyl-1H-1,2,3-triazol-4-yl)cyclopropyl)-1H-pyrazole-4-carboxylic acid] showed an EC50 of 10 to 100 nM.

In turn, `CCCCCCN(Cc1cccc(-n2ncc(C(=O)O)c2[C@@H]2C[C@H]2c2cn(C)nn2)c1)S(=O)(=O)c1ccc(Oc2ccccc2)cc1` (relative stereo) [Example 36, 1-(3-((N-hexyl-4-phenoxyphenylsulfonamido)methyl)phenyl)-5-((trans)-2-(1-methyl-1H-1,2,3-triazol-4-yl)-cyclopropyl)-1H-pyrazole-4-carboxylic acid] had an EC50 of 100 to 1000 nM.

`Cn1cc([C@@H]2C[C@H]2c2c(C(=O)O)cnn2-c2cccc(Cn3ccnc3CC3CCCCCC3)c2)nn1` (racemic) [Example 23] returned an EC50 of 10 to 100 nM.

Turning to `CCC1c2ccccc2OC(C)(C)CN1Cc1cccc(-n2ncc(C(=O)O)c2[C@@H]2C[C@H]2c2cn(C)nn2)c1` (stereo partly drawn) [Example 12], the EC50 was in the range of 10000 to 100000 nM.

For `Cn1cc([C@@H]2C[C@H]2c2c(C(=O)O)cnn2-c2cccc(CN3Cc4ncccc4OC(C)(C)C3)c2)nn1` (racemic) [Example 9], the EC50 was in the range of 100 to 1000 nM.

`CN(Cc1cccc(-n2ncc(C(=O)O)c2[C@@H]2C[C@H]2c2cn(C)nn2)c1)S(=O)(=O)c1ccc(-c2ccccc2)cc1` (relative stereo) [Example 39, 5-((trans)-2-(1-methyl-1H-1,2,3-triazol-4-yl)cyclo-propyl)-1-(3-((N-methyl-[1,1′-biphenyl]-4-ylsulfonamido)-methyl)phenyl)-1H-pyrazole-4-carboxylic acid]: the EC50 lay in the range of 100 to 1000 nM.

The compound `COc1ccc(Br)cc1S(=O)(=O)N(C)Cc1cccc(-n2ncc(C(=O)O)c2[C@@H]2C[C@H]2c2cn(C)nn2)c1` (racemic) [Example 43, 1-(3-((5-bromo-2-methoxy-N-methylphenylsulfonamido)methyl)phenyl)-5-((trans)-2-(1-methyl-1H-1,2,3-triazol-4-yl)cyclopropyl)-1H-pyrazole-4-carboxylic acid] gave an EC50 of 1000 to 10000 nM.

Consider `C[C@H]1Cc2ccccc2S(=O)(=O)N(Cc2cccc(-n3ncc(C(=O)O)c3[C@@H]3C[C@H]3c3cnn(C)c3)c2)C1` [Example 32, 1-(3-(((S)-4-methyl-1,1-dioxido-4,5-dihydrobenzo[f][1,2]thiazepin-2(3H)-yl)methyl)-phenyl)-5-(trans-2-(1-methyl-1H-pyrazol-4-yl)cyclopropyl)-1H-pyrazole-4-carboxylic acid], for which the EC50 lay in the range of 1000 to 10000 nM.
